# Columns and labels:
# Format in all cases: biochemical
# [1] = molecular target: T1, PI3K γ (Homo sapiens, UniProt P48736); experiment: PI3-kinase HTRF inhibition assay, PI3K γ; details: in vitro
# T1 construct: purchased Upstate
# Procedure: (§1) Commercial kits or systems for assaying PI3-K activities are available. The commercially available kits or systems can be used to screen for inhibitors and/or agonists of PI3-Ks including but not limited to PI 3-Kinase α, β, δ, and γ. Anr exemplary system is PI 3-Kinase (human) HTRF™ Assay from Upstate. […] Briefly, the assay is a time resolved FRET assay that indirectly measures PIP3 product formed by the activity of a PI3-K. The kinase reaction is performed in a microtitre plate (e.g., a 384 well microtitre plate). The total reaction volume is approximately 20 ul per well. In the first step, each well receives 2 ul of test compound in 20% dimethylsulphoxide resulting in a 2% DMSO final concentration. Next, approximately 14.5 ul of a kinase/PIP2 mixture (diluted in 1× reaction buffer) is added per well for a final concentration of 0.25-0.3 ug/ml kinase and 10 μM PIP2. The plate is sealed and incubated for 15 minutes at room temperature. To start the reaction, 3.5 ul of ATP (diluted in 1× reaction buffer) is added per well for a final concentration of 10 μM ATP. The plate is sealed and incubated for 1 hour at room temperature. The reaction is stopped by adding 5ul of Stop Solution per well and then 5 ul of Detection Mix is added per well. The plate is sealed, incubated for 1 hour at room temperature, and then read on an appropriate plate reader. Data is analyzed and IC50s are generated using GraphPad Prism 5. For PI3K α, β, δ, and γ, the nM concentration of inhibitor to reach IC50 is provided Inhibition of PI3K a at lower concentrations than those for β, δ, and γ provides evidence of specificity within this group of kinases. Similar assays, and others known in the art, can be used to measure the percent inhibition of other kinases, including but not limited to PI3K class II kinases, phosphoinositide 4 kinases (PI4K), and phosphoinositide 5 kinases (PI5K).
# [2] = molecular target: T2, PI3K α (Homo sapiens, UniProt P42336); experiment: PI3-kinase HTRF inhibition assay, PI3K α; details: in vitro
# T2 construct: purchased Upstate
# T2 sequence (P42336 whole entry): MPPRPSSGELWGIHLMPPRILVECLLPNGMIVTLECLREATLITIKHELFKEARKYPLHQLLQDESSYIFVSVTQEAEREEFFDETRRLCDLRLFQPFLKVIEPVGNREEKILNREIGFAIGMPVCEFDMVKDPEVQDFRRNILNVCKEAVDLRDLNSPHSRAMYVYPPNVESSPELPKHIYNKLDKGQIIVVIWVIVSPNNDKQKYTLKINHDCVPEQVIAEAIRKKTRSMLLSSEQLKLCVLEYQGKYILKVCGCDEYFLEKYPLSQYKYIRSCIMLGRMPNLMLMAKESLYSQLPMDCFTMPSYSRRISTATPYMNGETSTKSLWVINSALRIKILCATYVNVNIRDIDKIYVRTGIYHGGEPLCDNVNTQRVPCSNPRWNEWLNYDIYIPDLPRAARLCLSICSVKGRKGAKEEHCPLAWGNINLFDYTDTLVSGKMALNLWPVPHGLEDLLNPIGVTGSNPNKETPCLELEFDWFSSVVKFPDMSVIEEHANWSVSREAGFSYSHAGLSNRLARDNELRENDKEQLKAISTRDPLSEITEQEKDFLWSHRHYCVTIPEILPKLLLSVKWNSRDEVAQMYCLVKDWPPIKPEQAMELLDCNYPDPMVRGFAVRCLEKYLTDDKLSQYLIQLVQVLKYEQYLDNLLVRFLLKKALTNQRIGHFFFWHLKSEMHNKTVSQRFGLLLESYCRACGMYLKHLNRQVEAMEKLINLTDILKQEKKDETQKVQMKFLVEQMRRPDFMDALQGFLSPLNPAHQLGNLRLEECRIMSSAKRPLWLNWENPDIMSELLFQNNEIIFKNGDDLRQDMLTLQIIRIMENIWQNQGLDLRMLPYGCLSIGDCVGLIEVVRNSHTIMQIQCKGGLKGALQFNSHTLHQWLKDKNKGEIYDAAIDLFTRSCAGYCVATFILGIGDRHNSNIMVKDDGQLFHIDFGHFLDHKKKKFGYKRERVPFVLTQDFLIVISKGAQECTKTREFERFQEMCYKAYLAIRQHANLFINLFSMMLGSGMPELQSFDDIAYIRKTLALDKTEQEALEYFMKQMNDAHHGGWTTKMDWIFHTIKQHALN
# T2 sequence (P27986 whole entry partner): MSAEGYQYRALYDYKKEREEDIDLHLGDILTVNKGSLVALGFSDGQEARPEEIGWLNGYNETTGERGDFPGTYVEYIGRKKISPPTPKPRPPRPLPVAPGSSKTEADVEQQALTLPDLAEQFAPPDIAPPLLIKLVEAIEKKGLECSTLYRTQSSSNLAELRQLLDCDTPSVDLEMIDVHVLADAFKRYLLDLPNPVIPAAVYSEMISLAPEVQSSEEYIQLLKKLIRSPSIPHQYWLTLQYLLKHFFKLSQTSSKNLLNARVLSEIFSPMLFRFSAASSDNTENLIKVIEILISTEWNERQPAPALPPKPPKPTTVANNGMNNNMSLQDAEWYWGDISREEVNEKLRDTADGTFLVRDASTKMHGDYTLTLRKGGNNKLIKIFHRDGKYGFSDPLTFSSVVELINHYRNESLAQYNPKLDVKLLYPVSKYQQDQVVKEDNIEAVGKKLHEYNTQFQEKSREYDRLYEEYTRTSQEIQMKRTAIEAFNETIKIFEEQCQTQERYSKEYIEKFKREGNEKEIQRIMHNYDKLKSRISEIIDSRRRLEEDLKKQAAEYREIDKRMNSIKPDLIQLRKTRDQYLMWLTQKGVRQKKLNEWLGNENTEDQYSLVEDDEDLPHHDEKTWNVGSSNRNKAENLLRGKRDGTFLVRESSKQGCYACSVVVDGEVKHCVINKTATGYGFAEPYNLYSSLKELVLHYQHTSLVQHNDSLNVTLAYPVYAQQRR
# Procedure: as §1
# [3] = molecular target: T3, PI3K β (Homo sapiens, UniProt P42338); experiment: PI3-kinase HTRF inhibition assay, PI3K β; details: in vitro
# T3 construct: purchased Upstate
# T3 sequence (P42338 whole entry): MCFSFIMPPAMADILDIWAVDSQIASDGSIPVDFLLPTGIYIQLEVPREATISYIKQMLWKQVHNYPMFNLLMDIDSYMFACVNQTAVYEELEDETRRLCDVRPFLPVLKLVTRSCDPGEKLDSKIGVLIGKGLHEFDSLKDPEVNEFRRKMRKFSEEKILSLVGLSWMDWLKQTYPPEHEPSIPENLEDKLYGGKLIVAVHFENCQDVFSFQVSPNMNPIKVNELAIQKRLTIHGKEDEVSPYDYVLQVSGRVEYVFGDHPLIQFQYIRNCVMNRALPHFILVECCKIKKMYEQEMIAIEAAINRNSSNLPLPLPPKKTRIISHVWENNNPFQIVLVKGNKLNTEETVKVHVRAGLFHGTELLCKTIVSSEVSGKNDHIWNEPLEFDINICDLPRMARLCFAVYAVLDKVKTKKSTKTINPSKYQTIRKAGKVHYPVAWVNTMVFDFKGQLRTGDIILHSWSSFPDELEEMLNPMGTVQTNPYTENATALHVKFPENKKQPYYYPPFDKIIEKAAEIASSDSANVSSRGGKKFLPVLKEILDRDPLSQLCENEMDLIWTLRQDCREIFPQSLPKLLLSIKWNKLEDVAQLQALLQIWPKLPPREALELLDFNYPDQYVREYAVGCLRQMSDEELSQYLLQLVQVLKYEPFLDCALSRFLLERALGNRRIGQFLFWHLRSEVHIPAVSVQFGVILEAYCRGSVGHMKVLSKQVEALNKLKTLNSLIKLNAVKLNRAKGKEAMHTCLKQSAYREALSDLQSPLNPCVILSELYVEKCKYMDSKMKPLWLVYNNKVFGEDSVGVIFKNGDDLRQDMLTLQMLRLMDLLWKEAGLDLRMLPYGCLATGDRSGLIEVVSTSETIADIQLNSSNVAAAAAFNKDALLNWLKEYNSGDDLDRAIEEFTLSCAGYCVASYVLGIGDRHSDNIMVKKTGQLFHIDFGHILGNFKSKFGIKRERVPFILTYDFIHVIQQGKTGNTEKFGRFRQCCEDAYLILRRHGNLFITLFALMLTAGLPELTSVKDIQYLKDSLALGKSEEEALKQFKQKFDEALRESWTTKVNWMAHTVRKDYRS
# T3 sequence (P27986 whole entry partner): as the sequence (P27986 whole entry partner) above
# Procedure: as §1
# [4] = molecular target: T4, PI3K δ (Homo sapiens, UniProt O00329); experiment: PI3-kinase HTRF inhibition assay, PI3K δ; details: in vitro
# T4 construct: purchased Upstate
# Procedure: as §1
# [5] = molecular target: T5, mTORC (Homo sapiens, UniProt P42345); experiment: mTOR inhibition assay (in vitro IC50)
# T5 construct: purchased Invitrogen
# T5 sequence (P42345 1360-2549 limits assumed): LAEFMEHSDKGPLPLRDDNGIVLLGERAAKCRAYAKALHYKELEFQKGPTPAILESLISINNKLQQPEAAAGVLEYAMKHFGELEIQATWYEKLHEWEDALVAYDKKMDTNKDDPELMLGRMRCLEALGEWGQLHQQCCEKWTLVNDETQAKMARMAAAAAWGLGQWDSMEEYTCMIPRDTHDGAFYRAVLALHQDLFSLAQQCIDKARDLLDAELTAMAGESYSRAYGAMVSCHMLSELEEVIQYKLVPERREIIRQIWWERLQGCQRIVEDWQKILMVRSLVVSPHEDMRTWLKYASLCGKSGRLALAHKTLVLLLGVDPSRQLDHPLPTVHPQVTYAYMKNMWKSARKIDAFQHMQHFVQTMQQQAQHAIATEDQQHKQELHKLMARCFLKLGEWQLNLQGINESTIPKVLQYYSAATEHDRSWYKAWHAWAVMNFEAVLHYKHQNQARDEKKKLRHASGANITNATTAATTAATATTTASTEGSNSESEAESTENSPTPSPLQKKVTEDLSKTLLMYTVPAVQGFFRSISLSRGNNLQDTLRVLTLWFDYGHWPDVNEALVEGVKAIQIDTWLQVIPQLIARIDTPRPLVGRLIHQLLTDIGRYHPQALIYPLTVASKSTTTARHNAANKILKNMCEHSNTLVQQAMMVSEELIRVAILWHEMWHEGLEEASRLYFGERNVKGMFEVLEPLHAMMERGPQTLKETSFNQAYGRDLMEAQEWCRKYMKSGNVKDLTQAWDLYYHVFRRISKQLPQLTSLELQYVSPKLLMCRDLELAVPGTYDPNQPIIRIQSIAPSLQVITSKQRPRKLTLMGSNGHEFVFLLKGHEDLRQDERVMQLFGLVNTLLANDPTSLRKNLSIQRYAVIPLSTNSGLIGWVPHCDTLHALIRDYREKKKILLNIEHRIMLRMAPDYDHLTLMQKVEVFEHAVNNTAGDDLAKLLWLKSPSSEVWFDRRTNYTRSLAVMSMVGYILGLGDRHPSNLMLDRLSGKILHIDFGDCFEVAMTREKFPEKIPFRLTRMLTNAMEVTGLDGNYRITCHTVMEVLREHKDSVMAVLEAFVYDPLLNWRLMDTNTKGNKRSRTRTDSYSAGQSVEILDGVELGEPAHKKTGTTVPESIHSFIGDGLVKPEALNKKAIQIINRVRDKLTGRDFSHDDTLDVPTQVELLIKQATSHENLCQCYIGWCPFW
# Procedure: The cross-activity or lack thereof of one or more compounds of the present invention against mTor can be measured according to any procedures known in the art or methods disclosed below. The compounds described herein can be tested against recombinant mTOR (Invitrogen) in an assay containing 50 mM HEPES, pH 7.5, 1 mM EGTA, 10 mM MgCl2, 2.5 mM, 0.01% Tween, 10 μM ATP (2.5 μCi of […]), and 3 μg/mL BSA. Rat recombinant PHAS-1/4EBP1 (Calbiochem; 2 mg/mL) is used as a substrate. Reactions are terminated by spotting onto nitrocellulose, which is washed with 1M NaCl/1% phosphoric acid (approximately 6 times, 5-10 minutes each). Sheets are dried and the transferred radioactivity quantitated by phosphorimaging.
# Other kits or systems for assaying mTOR activity are commercially available. For instance, one can use Invitrogen's LanthaScreen™ Kinase assay to test the inhibitors of mTOR disclosed herein. This assay is a time resolved FRET platform that measures the phosphorylation of GFP labeled 4EBP1 by mTOR kinase. The kinase reaction is performed in a white 384 well microtitre plate. The total reaction volume is 20 ul per well and the reaction buffer composition is 50 mM HEPES pH7.5, 0.01% Polysorbate 20, 1 mM EGTA, 10 mM MnCl2, and 2 mM DTT. In the first step, each well receives 2 ul of test compound in 20% dimethylsulphoxide resulting in a 2% DMSO final concentration. Next, 8 ul of mTOR diluted in reaction buffer is added per well for a 60 ng/ml final concentration. To start the reaction, 10 ul of an ATP/GFP-4EBP1 mixture (diluted in reaction buffer) is added per well for a final concentration of 10 μM ATP and 0.5 μM GFP-4EBP1. The plate is sealed and incubated for 1 hour at room temperature. The reaction is stopped by adding 10 ul per well of a Tb-anti-pT46 4EBP1 antibody/EDTA mixture (diluted in TR-FRET buffer) for a final concentration of 1.3 nM antibody and 6.7 mM EDTA. The plate is sealed, incubated for 1 hour at room temperature, and then read on a plate reader set up for LanthaScreen™ TR-FRET. Data is analyzed and IC50s are generated using GraphPad Prism 5.
SMILES,IC50 [1] [µM],IC50 [2] [µM],IC50 [3] [µM],IC50 [4] [µM],IC50 [5] [µM]
Cc1ncc(-c2ccc3ncc(C(=O)N4CCOCC4)n3c2)c2cn[nH]c12 [Compound 1],> 10,< 0.1,> 10,< 10,–
[2H]c1c(-c2ccc3ncc(C(=O)N4CCOCC4)n3c2)c([2H])c2nc(N)oc2c1[2H] [Compound 2],< 0.1,< 0.1,< 10,> 10,–
O=C(c1cnc2ccc(-c3ccnc4[nH]ncc34)cn12)N1CCOCC1 [Compound 3],> 10,< 10,> 10,> 10,> 10
CN1CC2CN(C(=O)c3cnc4ccc(-c5ccc6oc(N)nc6c5)cn34)CC2C1 (stereo not shown) [Compound 4],< 1,< 0.1,< 1,< 1,> 10
O=C(c1cnc2ccc(-c3cnc4cc[nH]c4c3)cn12)N1CCOCC1 [Compound 5],> 10,< 10,> 10,> 10,–
O=C(c1cnc2ccc(-c3cnc4cn[nH]c4c3)cn12)N1CCOCC1 [Compound 6],> 10,–,> 10,> 10,–
Cc1ncc(-c2ccc3ncc(C(=O)N4CCOCC4)n3c2)c2cc[nH]c12 [Compound 7],> 10,< 10,> 10,> 10,–
Cn1ncc2c(-c3ccc4ncc(C(=O)N5CCOCC5)n4c3)cncc21 [Compound 8],< 10,< 10,> 10,> 10,–
Cc1ncc(-c2ccc3ncc(C(=O)N4C5CCC4COC5)n3c2)c2cn[nH]c12 [Compound 9],> 10,< 0.1,> 10,< 10,> 10
O=C(c1cnc2ccc(-c3cncc4c3cnn4CCO)cn12)N1CCOCC1 [Compound 10],> 10,> 10,> 10,> 10,–
Nc1nc2cc(-c3cnc4ccc(C(=O)N5C6CCC5COC6)cn34)ccc2o1 [Compound 11],> 10,> 10,> 10,> 10,–
Nc1nc2cc(-c3cnc4ccc(C(=O)N5CCOCC5)cn34)ccc2o1 [Compound 12],–,> 10,> 10,> 10,–
CN1CCN(c2nnc3ccc(-c4ccc5nc(N)oc5c4)cn23)CC1 [Compound 13],> 10,> 10,> 10,> 10,–
Cc1cc(-c2ccc3nc(N)oc3c2)cn2c(-c3ccncc3)nnc12 [Compound 14],> 10,> 10,< 10,> 10,–
Nc1nc2ccc(-c3ccc4ncc(C(=O)N5CCOCC5)n4c3)cc2[nH]1 [Compound 15],> 10,< 1,> 10,> 10,–
CN1CCN(CCc2nnc3ccc(-c4ccc5nc(N)oc5c4)cn23)CC1 [Compound 16],> 10,> 10,> 10,> 10,–
Cc1cc(-c2ccc3nc(N)oc3c2)cn2c(N3CCN(C)CC3)nnc12 [Compound 17],> 10,> 10,> 10,> 10,–
CN1CCN(Cc2nnc3ccc(-c4ccc5nc(N)oc5c4)cn23)CC1 [Compound 18],> 10,> 10,> 10,> 10,–
Cc1cc(-c2ccc3nc(N)oc3c2)cn2c(CCN3CCN(C)CC3)nnc12 [Compound 19],> 10,> 10,> 10,> 10,–
Cc1cc(-c2ccc3nc(N)oc3c2)cn2c(CN3CCN(C)CC3)nnc12 [Compound 20],> 10,> 10,> 10,> 10,–
Nc1nc2cc(-c3ccc4ncc(C(=O)NCCOCCO)n4c3)ccc2o1 [Compound 21],< 1,< 1,< 10,< 10,–
Nc1nc2cc(-c3ccc4ncc(C(=O)NCCOCC(=O)O)n4c3)ccc2o1 [Compound 22],< 0.1,< 0.1,< 1,–,–
